These are literature values, as cited in US6096864A, “Peptides for use in wound treatment” (Johnson & Johnson Medical, Ltd., priority 1998, dated 2000).

The subject of this series is human fibroblast. To be noted: concentration range 2.5 mM to 25 mM.

Take Gly-Pro-Ala: the chemotactic activity entry is “no chemotactic activity”.
